# From ChEMBL document CHEMBL4000229, “Structure-activity relationships of diverse xanthones against multidrug resistant human tumor cells” (Bioorg Med Chem Lett, 2017)
# Columns and labels:
# Type in all cases: functional, cell-based
# NCI/ADR-RES = assay: Cytotoxicity against human MCF7/ADR cells measured after 48 hrs by MTT assay
# SMMC-7721 = assay: Cytotoxicity against Taxol-resistant human SMMC7721 cells measured after 48 hrs by MTT assay; details: SMMC-7721, 48 h
# A549 = assay: Cytotoxicity against Taxol-resistant human A549 cells measured after 48 hrs by MTT assay; details: A549, 48 h
smiles,measurement,setting,value
O=c1c2cc(O)ccc2oc2cc(O)cc(O)c12,IC50,NCI/ADR-RES,193 µM
same,IC50,SMMC-7721,38.5 µM
same,IC50,A549,146 µM
COc1ccc2oc3ccc(O)cc3c(=O)c2c1OC,IC50,NCI/ADR-RES,53.5 µM
same,IC50,SMMC-7721,81.8 µM
same,IC50,A549,178 µM
COc1ccc2oc3ccc(O)c(OC)c3c(=O)c2c1,IC50,NCI/ADR-RES,102 µM
same,IC50,SMMC-7721,83.7 µM
same,IC50,A549,35.2 µM
O=c1c2cc(O)ccc2oc2cccc(O)c12,IC50,NCI/ADR-RES,> 200 µM
same,IC50,SMMC-7721,60.4 µM
same,IC50,A549,> 200 µM
COc1c(O)cc(OC)c2c(=O)c3c(O)cccc3oc12,IC50,NCI/ADR-RES,30.4 µM
same,IC50,SMMC-7721,14.7 µM
same,IC50,A549,25.6 µM
COc1c(O)cc2oc3ccc(O)cc3c(=O)c2c1O,IC50,NCI/ADR-RES,> 200 µM
same,IC50,SMMC-7721,48.9 µM
same,IC50,A549,167 µM
COc1c(O)ccc2oc3ccc(O)cc3c(=O)c12,IC50,NCI/ADR-RES,109 µM
same,IC50,SMMC-7721,56.3 µM
same,IC50,A549,37.1 µM
COc1cc(O)c2c(=O)c3cc(O)ccc3oc2c1,IC50,NCI/ADR-RES,31.8 µM
same,IC50,SMMC-7721,87.4 µM
same,IC50,A549,104 µM
COc1ccc(O)c2c(=O)c3cc(O)ccc3oc12,IC50,NCI/ADR-RES,185 µM
same,IC50,SMMC-7721,15.1 µM
same,IC50,A549,38.9 µM
COc1cc(OC)c2c(=O)c3c(O)cccc3oc2c1OC,IC50,NCI/ADR-RES,59.1 µM
same,IC50,SMMC-7721,50.9 µM
same,IC50,A549,34.6 µM
COc1cc(O)c2c(=O)c3cc(O)ccc3oc2c1OC,IC50,NCI/ADR-RES,57.3 µM
same,IC50,SMMC-7721,63 µM
same,IC50,A549,62.3 µM
COc1cc2c(=O)c3c(O)c(OC)c(O)cc3oc2cc1O,IC50,NCI/ADR-RES,> 200 µM
same,IC50,SMMC-7721,102 µM
same,IC50,A549,> 200 µM
COc1c(O)cc2oc3cccc(O)c3c(=O)c2c1O,IC50,NCI/ADR-RES,> 200 µM
same,IC50,SMMC-7721,43.8 µM
same,IC50,A549,> 200 µM
